Experimental data as given in patent EP4624457A1, “I[…] DERIVATIVES, I[…] NEURODEGENERATIVE DISEASES” (Centre National de la Recherche Scientifique, priority 2024, dated 2025).

Columns and labels:
cancer cell lines = settings: literature (Tang et al. 2023; Fribley et al. 2019); cited from earlier work
HCT116 cells = assay: JC-1 mitochondrial membrane potential assay (flow cytometry); assay type: cell-based, human
Experimental: • Figure 1 represents the chemical structure of ingrilimine according to compound (Illa) formula. • Figure 2 represents the cytotoxic activity of ingrilimine. A2780 ovarian and HT29 colorectal carcinoma cells were grown in RPMI 1640 supplemented with 10% fetal calf serum (FCS) and 1% glutamine. U87-MG glioblastoma cells were grown in Dulbecco minimal essential medium containing 4.5 g/L glucose, 10% FCS and 1% glutamine at 37 °C in a humidified atmosphere containing 5% CO2. For IC50 determination, the cells were seeded in 96-well plates (3 × 10^3 cells/well) containing 90 µL of growth medium. After 24 h of culture, the cells were treated with ingrilimine at 10 different final concentrations. Cell viability was determined by luminescence after 72 h incubation. (a) Effect of ingrilimine on A2780 ovarian carcinoma cells. (b) Effect of ingrilimine on U87-MG glioblastoma cells. (c) Effect of ingrilimine on U87-MG glioblastoma cells • Figure 3a-3f represent the mitochondrial dysfunction provoked by ingrilimine. HCT116 cells were treated with ingrilimine in the range of […] for 24h and 48h. Sector Q normal cells that accumulated the JC-1 dye (fluorescence emission 590 nm). […] (a) Non-treated cells incubated with the carrier (DMSO) for 24 h. (b) HCT116 cells incubated with 10 nN ingrilimine for 24 h. (c) HCT116 cells incubated with 250 nM ingrilimine for 24 h. (d) Non-treated cells incubated with the carrier (DMSO) for 48 h. (e) HCT116 cells incubated with 10 nN ingrilimine for 48 h. (f) HCT116 cells incubated with 250 nM ingrilimine for 48. Changes in fluorescence emission were recorded by flow cytometry using the JC-1 mithocondrial membrane potential-dependent fluorescent dye. NT = non-treated cells; IngX = ingrilimine. • Figure 4a-4f represents phosphatidylserine exposure provoked by ingrilimine. […] Quadrants D1 and D2 with dead or necrotic cells, quadrant D3 with normal cells and quadrant D4 with apoptotic cells following phosphatidylserine exposure. (a) Non-treated A2780 cells incubated with the carrier (DMSO) for 24h. (b) A2780 cells incubated with 10 nM ingrilimine for 24 h. (c) A2780 cells incubated with 250 nM ingrilimine for 24 h. (d) Non-treated A2780 cells incubated with the carrier (DMSO) for 48 h. (e) A2780 cells incubated with 10 nM ingrilimine for 48 h. (f) A2780 cells incubated with 250 nM ingrilimine for 48. […] exposure in A2780 cell was quantified by flow cytometry using FITC-Annexin V. Dead or necrotic cells were detected using the vital dye propridium iodide. NT = non-treated cells; IngX = ingrilimine. • Figure 5 represents the antagonistic activity of ingrilimine (named "IngX" in the figure) and portimine (named "Port A" in the figure) against nicotinic acetylcholine receptors recorded by two-electrodes voltage clamp electrophysiology on Xenopus laevis oocytes. Clamped Xenopus laevis oocytes having incorporated the muscle (α1)2βγδ nAChR subtype from Torpedo marmorata (filled squares), or expressing the neuronal α3β2 nAChR subtype from rat (filled triangles), or expressing the human neuronal α7 nAChR subtype (filled circles) were exposed to portimine (100 nM - 1 mM) for 45 seconds. […] A Xenopus laevis oocyte expressing the human α7 nAChR subtype was exposed to 100 µM acetylcholine triggering the immediate opening of the receptor's channel (black bold line) followed by the very-fast closure of the channel ([…]) that became insensitive to acetylcholine during the rest of the 5 seconds exposure (desensitization). When a Xenopus laevis oocyte expressing the human α7 nAChR subtype was exposed first to 10 nM ingrilimine for 45 seconds and then to a mixture (Mix) containing 10 nM ingrilimine and 100 µM acetylcholine, the receptor's channel was closed denoting a strong antagonistic activity of the tested toxin against the α7 nAChR subtype (dotted line). […]

Jurkat cells = settings: 50 nM for 6 h; cited from earlier work

Row | SMILES | cytotoxic activities, order of magnitude (cancer cell lines) | JC-1 % (HCT116 cells; 5 nM, 48 h) [%] | JC-1 % (HCT116 cells; 10 nM, 24 h) [%] | JC-1 % (HCT116 cells; 10 nM, 48 h) [%] | JC-1 % (HCT116 cells; 20 nM, 24 h) [%] | JC-1 % (HCT116 cells; 20 nM, 48 h, listed as Portimine) [%] | JC-1 % (HCT116 cells; 20 nM, 48 h, listed as portimine) [%] | JC-1 % (HCT116 cells; 50 nM, 24 h) [%] | annexin V-positive cells (Jurkat cells) [%] | viable cells (Jurkat cells) [%] | JC-1 % (HCT116 cells; 50 nM, 48 h) [%] | JC-1 % (HCT116 cells; 100 nM, 24 h) [%] | JC-1 % (HCT116 cells; 100 nM, 48 h) [%] | JC-1 % (HCT116 cells; 250 nM, 24 h) [%] | JC-1 % (HCT116 cells; 250 nM, 48 h) [%] | JC-1 % (HCT116 cells; 500 nM, 24 h) [%] | times less potent than portimine in inducing mitochondrial membrane depolarization (HCT116 cells; HCT116, JC-1) [times]
1 | C=CC1=C[C@@H]2[C@@H]3O[C@]4(CC[C@H](O4)[C@@H](C)C[C@@H](O)C3=O)C[C@H](O)C3=NCC[C@@]32CC1 [Portimine-A] | ~10^-9 M | 31.6 | 19.7 | 44.6 | 23.9 | 62.1 | 62.3 | 37.0 | 50 | 50 | – | – | – | – | – | – | –
2 | C=CC1=C[C@@H]2C[C@@H](O)[C@@H](O)/C(C)=C/C/C(C)=C/CCC3=NCCC[C@]32CC1 [Ingrilimine, ingrilimine] | – | – | 5.1 | 4.4 | – | – | – | 6.1 | – | – | 22.6 | 14.9 | 44.1 | 22.7 | 64.1 | 36.9 | 10
